Legend:
Cmu1 = target: T1, Cmu1 (Mycosarcoma maydis, UniProt A0A0D1DWQ2); experiment: absorbance at […] nm, prephenate converted to phenylpyruvate; format: biochemical; conditions: weak chorismate mutase activity assay; conditions as in cited procedure
T1 construct: His-tagged, pET, E. coli BL21, Ni-NTA

AtCM2 = target: T2, AtCM2 (Arabidopsis thaliana, UniProt Q9S7H4); experiment: as above; format: biochemical; conditions: chorismate mutase activity assay; conditions as in cited procedure
T2 construct: gene CM2; His-tagged, pET, E. coli BL21, Ni-NTA; cytosolic enzyme
T2 sequence (Q9S7H4 1-265): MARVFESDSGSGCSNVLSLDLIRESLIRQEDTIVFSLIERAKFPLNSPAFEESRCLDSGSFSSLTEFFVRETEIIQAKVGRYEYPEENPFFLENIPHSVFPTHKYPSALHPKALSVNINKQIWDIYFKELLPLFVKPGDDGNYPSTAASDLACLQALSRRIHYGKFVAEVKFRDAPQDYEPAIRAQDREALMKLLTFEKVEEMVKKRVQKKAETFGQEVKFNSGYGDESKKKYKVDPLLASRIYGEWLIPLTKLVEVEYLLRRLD

AtCM1 = target: T3, AtCM1 (Arabidopsis thaliana, UniProt P42738); experiment: as above; format: biochemical; conditions: chorismate mutase activity assay; conditions as in cited procedure
T3 construct: gene CM1; His-tagged, pET, E. coli BL21, Ni-NTA
T3 sequence (P42738 66-340): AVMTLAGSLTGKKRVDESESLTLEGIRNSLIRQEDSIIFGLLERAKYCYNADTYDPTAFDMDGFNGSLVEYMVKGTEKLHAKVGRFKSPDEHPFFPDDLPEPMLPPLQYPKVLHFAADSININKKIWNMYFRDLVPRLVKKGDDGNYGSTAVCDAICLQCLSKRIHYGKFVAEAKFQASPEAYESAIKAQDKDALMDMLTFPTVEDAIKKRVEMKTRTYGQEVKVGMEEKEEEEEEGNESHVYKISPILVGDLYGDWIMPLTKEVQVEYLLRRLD

AtCM3 = target: T4, AtCM3 (Arabidopsis thaliana, UniProt Q9C544); experiment: as above; format: biochemical; conditions: chorismate mutase activity assay; conditions as in cited procedure
T4 construct: gene CM3; His-tagged, pET, E. coli BL21, Ni-NTA
T4 sequence (Q9C544 48-316): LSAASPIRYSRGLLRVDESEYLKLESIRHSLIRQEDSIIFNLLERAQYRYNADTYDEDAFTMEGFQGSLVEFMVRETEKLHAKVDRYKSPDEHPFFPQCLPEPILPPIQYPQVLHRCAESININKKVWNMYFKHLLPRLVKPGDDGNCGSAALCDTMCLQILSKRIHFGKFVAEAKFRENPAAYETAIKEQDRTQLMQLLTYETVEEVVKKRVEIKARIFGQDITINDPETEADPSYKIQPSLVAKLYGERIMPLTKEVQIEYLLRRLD

SsCM1 = target: T5, SsCM1 (Sclerotinia sclerotiorum, UniProt A7F9N9); experiment: as above; format: biochemical; conditions: weak chorismate mutase activity assay; conditions as in cited procedure
T5 construct: gene SS1G_14320; His-tagged, pET, E. coli BL21, Ni-NTA

SsCM1 ΔSP/cTP1-66 = target: T6, SsCM1 ΔSP/cTP1-66 (Sclerotinia sclerotiorum, UniProt A7F9N9); experiment: HPLC of salicylic acid made in E. coli KRX expressing the protein; format: cell-based; conditions: endogenous isochorismate of E. coli; 24 °C overnight, IPTG and rhamnose induction; isochorismate pyruvate lyase activity
T6 construct: gene SS1G_14320; residues 1-66 (signal peptide and chloroplast targeting peptide) removed; codon-optimized, pET28a, in E. coli KRX cells
T6 sequence (A7F9N9 entry or part of it, stated change not applied): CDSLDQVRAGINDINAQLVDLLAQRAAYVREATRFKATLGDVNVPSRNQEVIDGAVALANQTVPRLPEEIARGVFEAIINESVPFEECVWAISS

T5 sequence (A7F9N9 entry or part of it): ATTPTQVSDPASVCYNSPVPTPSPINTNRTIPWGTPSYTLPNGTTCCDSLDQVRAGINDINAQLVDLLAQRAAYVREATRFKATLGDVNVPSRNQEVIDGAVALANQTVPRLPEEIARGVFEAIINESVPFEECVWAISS
T1 sequence (A0A0D1DWQ2 22-290): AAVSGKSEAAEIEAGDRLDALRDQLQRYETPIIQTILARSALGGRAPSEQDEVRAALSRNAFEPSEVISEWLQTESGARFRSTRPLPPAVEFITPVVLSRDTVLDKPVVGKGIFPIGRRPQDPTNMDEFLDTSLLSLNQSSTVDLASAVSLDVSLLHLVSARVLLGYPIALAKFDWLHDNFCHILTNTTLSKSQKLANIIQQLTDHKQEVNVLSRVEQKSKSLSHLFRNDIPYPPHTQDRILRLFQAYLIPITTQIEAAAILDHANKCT

Row | SMILES | absorbance at 320 nm, prephenate converted to phenylpyruvate (Cmu1) | absorbance at 320 nm, prephenate converted to phenylpyruvate (AtCM2) | absorbance at 320 nm, prephenate converted to phenylpyruvate (AtCM1) | absorbance at 320 nm, prephenate converted to phenylpyruvate (AtCM3) | absorbance at 320 nm, prephenate converted to phenylpyruvate (SsCM1) | HPLC of salicylic acid made in E. coli KRX expressing the protein (SsCM1 ΔSP/cTP1-66)
1 | C=C(O[C@@H]1C=C(C(=O)O)C=C[C@H]1O)C(=O)O [chorismate] | all tested chorismate mutases are able to convert chorismate into prephenate | all tested chorismate mutases are able to convert chorismate into prephenate | all tested chorismate mutases are able to convert chorismate into prephenate | all tested chorismate mutases are able to convert chorismate into prephenate | all tested chorismate mutases are able to convert chorismate into prephenate | –
2 | C=C(O[C@H]1C=CC=C(C(=O)O)[C@@H]1O)C(=O)O [isochorismate] | – | – | – | – | – | SsCM1 possesses some IPL activity when expressed in E. coli

Reference: article PMC12607891, “A broadly conserved fungal chorismate mutase targets the plant shikimate pathway to regulate salicylic acid production and other secondary metabolites” (mBio, 2025)
